Assay results: US5395824A, “Dipeptide derivative and prophylactic and therapeutic agent for bone diseases containing the same” (Suntory Limited, priority 1991, dated 1995)

Legend:
[1] = tested on: PTHrp(1-34)-Induced Hypercalcemia in Rats; test: Effect on PTHrp(1-34)-induced hypercalcemia in rats (p.o.); assay type: in vivo; settings: male Wistar rats, 40 mg/kg p.o.; PTHrp(1-34) 5 nmole/kg i.v. four hours later; blood sample 1 hour after PTHrp; n = 5; PTHrp-only control 10.84 ± 0.11
Experimental: Some of the compounds shown in Table 1 were orally administered to 5-week-old male Wistar rats weighing from […] to 110 g (5 animals per group) at a dose of 40 mg/kg body weight. Four hours later, 5 nmole/kg of PTHrp(1-34) was intravenously injected into the animals. One hour after the administration of PTHrp(1-34)sequence ID No. 1, a blood sample was collected from each rat, and the blood calcium concentration was determined by the octocresolphthalein complexone method.

[2] = tested on: PTHrp(1-34)-Induced Hypercalcemia in Rats; test: Effect on PTHrp(1-34)-induced hypercalcemia in rats (i.p.); assay type: in vivo; settings: male Wistar rats, 40 mg/kg i.p.; PTHrp(1-34) 5 nmole/kg i.v. two hours later; blood sample 1 hour after PTHrp; n = 5; PTHrp-only control 10.79 ± 0.13
Experimental: Some of the compounds shown in Table 1 were intraperitoneally administered to 5-week-old male Wistar rats each weighing 90 to 110 g (5 animals per group) at a dose of 40 mg/kg body weight. Two hours later, 5 nmole/kg of PTHrp(1-34) was intravenously injected. One hour after the administration of PTHrp(1-34), a blood sample was collected from each animal, and the blood calcium concentration was determined according to the same method as in Test Example 1.

| SMILES | Ca Conc. ± S.E. (average blood calcium concentration) [1] [mg/dL] | Ca Conc. ± S.E. (average blood calcium concentration) [2] [mg/dL] |
| --- | --- | --- |
| CCCCC(NC(=O)[C@H](CC(C)C)NC(=O)C(F)(F)F)C(OC)OC (stereo partly drawn) [Example 27, N-Trifluoroacetyl-L-leucine-(1-dimethoxymethyl)pentylamide] | 9.91 ± 0.13 | – |
| CCCCC(NC(=O)[C@H](CC(C)C)NC(C)=O)C1OCCO1 (stereo partly drawn) [Example 17, N-Acetyl-L-leucine-[1-(1,3-dioxolan-2-yl)]pentylamide] | 9.97 ± 0.17 | 10.16 ± 0.05 |
| CCCCC(NC(=O)[C@H](CC(C)C)NC(=O)CCC)C(OC)OC (stereo partly drawn) [Example 26, N-Butyryl-L-leucine-(1-dimethoxymethyl)pentylamide] | 9.85 ± 0.08 | – |
| CCCCC(NC(=O)[C@H](CC(C)C)NC(=O)CC)C(OC)OC (stereo partly drawn) [Example 25, N-Propionyl-L-leucine-(1-dimethoxymethyl)pentylamide] | 9.88 ± 0.09 | – |
| CCCCC(NC(=O)[C@H](CC(C)C)NC(=O)OCc1ccccc1)C1SCCS1 (stereo partly drawn) [Example 13, N-Benzyloxycarbonyl-L-leucine-[1-(1,3-dithiolan-2-yl)]pentylamide] | – | 10.23 ± 0.05 |
| CCCCC(NC(=O)[C@H](CC(C)C)NC(C)=O)C1NCCS1 (stereo partly drawn) [Example 21, N-Acetyl-L-leucine-[1-(thiazolidine-2-yl)]pentylamide] | 9.98 ± 0.10 | 9.96 ± 0.07 |
| CCCCC(NC(=O)[C@H](CC(C)C)NC(=O)OCc1ccccc1)C1OCCO1 (stereo partly shown) [Example 9] | 10.41 ± 0.08 | – |
| CCCCC(NC(=O)[C@H](CC(C)C)NC(=O)OCc1ccccc1)C1NCCS1 (stereo partly drawn) [Example 15, N-Benzyloxycarbonyl-L-leucine-[1-(thiazolidine-2-yl)]pentylamide] | 9.98 ± 0.13 | 10.13 ± 0.21 |
| CCCCC(NC(=O)[C@H](CC(C)C)NC(=O)OCc1ccccc1)C(=O)C(=O)OCC (stereo partly drawn) [Example 1, N-Benzyloxycarbonyl-L-leueine-(1-ethoxalyl)pentylamide] | – | 10.33 ± 0.12 |
| CCCCC(NC(=O)[C@H](CC(C)C)NC(C)=O)C(OCC)OCC (stereo partly drawn) [Example 22, N-Acetyl-L-leucine-(1-diethoxymethyl)pentylamide] | 10.05 ± 0.13 | 9.67 ± 0.18 |
| CCCCC(NC(=O)[C@H](CC(C)C)NC(=O)CCl)C(OC)OC (stereo partly drawn) [Example 24, N-Chloroacetyl-L-leucine-(1-dimethoxymethyl)pentylamide] | 10.12 ± 0.09 | – |
| CCCCC(NC(=O)[C@H](CC(C)C)NC(=O)OCc1ccccc1)C(OC(C)=O)OC(C)=O (stereo partly drawn) [Example 12, N-Benzyloxycarbonyl-L-leucine-(1-diacetoxymethyl)pentylamide] | – | 10.27 ± 0.08 |
| CCCCC(NC(=O)[C@H](CC(C)C)NC(C)=O)C(OC)OC (stereo partly drawn) [Example 16, N-Acetyl-L-leucine-(1-dimethoxymethyl)pentylamide] | 9.91 ± 0.13 | 9.95 ± 0.14 |
| CCCCC(NC(=O)[C@H](CC(C)C)NC(=O)C(C)C)C(OC)OC (stereo partly drawn) [Example 23, N-Isobutyryl-L-leucine-(1-dimethoxymethyl)pentylamide] | 9.83 ± 0.13 | – |
| CC(C)CC(C=O)NC(=O)[C@H](CC(C)C)NC(=O)OCc1ccccc1 (stereo partly drawn) [Example 33, N-Benzyloxycarbonyl-L-leucine-(1-formyl-3-methyl)butylamide] | 10.26 ± 0.13 | – |
| CCCCC(NC(=O)[C@H](CC(C)C)NC(=O)OCc1ccccc1)C(OC)OC (stereo partly drawn) [Example 7, N-Benzyloxycarbonyl-L-leucine-(1-dimethoxymethyl)pentylamide] | 10.36 ± 0.11 | 10.29 ± 0.14 |
